Results on four compounds are retold here after US20080139458A1, “Methods of Treatment For Injured or Diseased Joints” (priority 2004, published 2008).

Several values for one entry are separate records, joined by “and”; a condition that tells them apart may be missing. Equal values may be shown once. Read-outs that look alike come from different tables or passages of the source. Peptide text beside a SMILES is read from it. * marks the point of attachment. Cbz = O=C(OCc1ccccc1)*; CH2F = FC*

Assay [1] deals with pooled rheumatoid arthritis (RA) synovial fluid (SF) aspirates supplemented with purified human lubricin. The class given is biochemical. The conditions noted are these: for Change in coefficient of friction Δμ ± S.D.: 37° C., E-64 10 μM, Z-LLL-FMK 20 μM, PMSF 25 μM, EDTA 10 mM, Lubricin = no inhibitor. The procedure: (§1) The boundary lubricating abilities of protease-treated human lubricin and BSF were measured using a friction apparatus as reported by Davis et al., J. Biomech. Eng. 101:185-192, 1979. Lubricant (200 μL) was applied between a bearing of latex and a ring of polished glass with a contact area of 1.59 cm^2. The latex was oscillated, under a pressure of 0.35×10^6 N/m^2, against the polished glass with an entraining velocity of 0.37 mm/sec. The bearing system was axially loaded within a gimbals system free to rotate around two perpendicular horizontal axes. The friction apparatus recorded displacements of the gimbals system around the vertical loading axis through a linear displacement voltage transducer, where the output was directly proportional to the frictional torque (F). A bearing load of 70 newtons (N) was related to the coefficient of friction (μ) via Amonton's law, F=μN.
(§2) The μ of the lubricant was recorded at room temperature and was preceded by a baseline measurement of μ with normal saline (NS). Lubrication was manifested by a reduction in μ by the lubricant relative to that of NS. Negative Δμ (−Δμ) values indicate lubrication whereas positive Δμ (+Δμ) indicate friction. Addition of 200 μL of lubricant was followed by bringing the bearing surfaces close enough so that the solution wet both surfaces. After 5 min for equilibration, the latex-coated bearing was brought to rest on the glass as it was oscillating. Voltage measurements were recorded at 1, 3, and 5 min. After 5 min, the surfaces were separated for 2 min and then brought back together for three additional 5 min session. The 3 and 5 min μ values of the last two 5 min session were recorded and averaged, and data were later combined with another duplicate experiment providing 8 distinct measurements of μ.
(§3) The SF aspirates from patients diagnosed with a Noyes criteria grade III or IV OA (n=60), with RA (n=20), or with KJS (n=23) were pooled in equal proportions. […] The lubricin-supplemented pooled OA, RA, and KJS SF aspirates were treated at 37° C. and sampled after 24, 48, and 96 hours. The friction analysis of the sampled SF was conducted as described above. Normal human SF was obtained from cartilage allograft donors and was utilized as a control.
(§4) The treatments were performed at 37° C., and SF was sampled at 24, 48, and 96 hours post-treatment. The in vitro friction assay of sampled SF was performed as described above.

Assay [2] has as its system pooled knee joint synovitis (KJS) synovial fluid (SF) aspirates supplemented with purified human lubricin. The class given is biochemical. The conditions noted are these: for Change in coefficient of friction Δμ ± S.D.: 37° C., E-64 10 μM, Z-LLL-FMK 20 μM, PMSF 25 μM, EDTA 10 mM, Lubricin = no inhibitor; for Lubricating ability compared to controls without enzyme inhibitors: KJS SF at 24, 48, and 96 hours, P<0.001. As for the experimental part:
as §1, §2, §3, §4

Setting [3] is: at 24, 48, and 96 hours, P<0.001.

As for `CC(C)C[C@H](NC(=O)[C@H]1O[C@@H]1C(=O)O)C(=O)NCCCCN=C(N)N` (relative stereo) [E-64, L-trans-epoxysuccinyl-leucyl-amido-(4-guanidino)-butane], the “Change in coefficient of friction Δμ ± S.D.” value (shortened to “Change … of friction Δμ ± S.D.”) in assay [1] (0 hrs) is −0.060 ± 0.002; in assay [1] (24 hrs) it was −0.053 ± 0.004; in assay [1] (48 hrs), −0.024 ± 0.002; in assay [1] (96 hrs) it was −0.014 ± 0.004; in assay [2] (0 hrs), −0.059 ± 0.004; in assay [2] (24 hrs) it was −0.042 ± 0.005. Further, the “Change … of friction Δμ ± S.D.” value is −0.039 ± 0.007 in assay [2] (48 hrs) and −0.034 ± 0.002 in assay [2] (96 hrs). In assay [1] (setting [3]), the “Δμ compared to lubricin-supplemented pooled RA SF aspirates” value is reported as “significant decrease in Δμ”. In addition, the “average increase in Δμ” value in assay [1] (at 24 hours, RA SF) is 11.7%; in assay [1] (at 48 hours, RA SF), 60.0%; in assay [1] (at 96 hours, RA SF) it was 76.7%; in assay [2] (at 24 hours, KJS SF), 32.7%; in assay [2] (at 48 hours, KJS SF) it was 38.5%; in assay [2] (at 96 hours, KJS SF), 42.4%. The “Lubricating ability compared to controls without enzyme inhibitors” value in assay [2] is given as “preserved lubricating ability”.

As for `O=C(O)CN(CCN(CC(=O)O)CC(=O)O)CC(=O)O` [EDTA], in assay [1], the “average increase in Δμ” value was 90.0% and 88.3% and 128.3%; the “Δμ compared to lubricin-supplemented pooled RA SF aspirates” value is “significant decrease in Δμ”. Also, in assay [2], the “average increase in Δμ” value is 50.0% and 80.0% and 85.0%; the “Δμ compared to lubricin-supplemented pooled KJS SF aspirates” value was “significant (P<0.01) decrease in Δμ”.

`O=S(=O)(F)Cc1ccccc1` [PMSF, phenylmethanesulfonyl fluoride]: the “Change … of friction Δμ ± S.D.” value in assay [1] (0 hrs) is on record as −0.060 ± 0.002; in assay [1] (24 hrs), −0.009 ± 0.009; in assay [1] (48 hrs), −0.008 ± 0.004; in assay [1] (96 hrs), −0.009 ± 0.001; in assay [2] (0 hrs), −0.060 ± 0.001; in assay [2] (24 hrs), −0.033 ± 0.006. The “Change … of friction Δμ ± S.D.” value in assay [2] (48 hrs) was −0.030 ± 0.005; in assay [2] (96 hrs), −0.027 ± 0.005. Further, in assay [1] (setting [3]), the “Δμ compared to lubricin-supplemented pooled RA SF aspirates” value is “significant decrease in Δμ”. In addition, the “average increase in Δμ” value in assay [1] (at 24 hours, RA SF) came out at 85.0%; in assay [1] (at 48 hours, RA SF), 86.3%; in assay [1] (at 96 hours, RA SF) it was 85.0%; in assay [2] (at 24 hours, KJS SF) it was 45.0%; in assay [2] (at 48 hours, KJS SF), 50.0%; in assay [2] (at 96 hours, KJS SF), 55.0%. Further, the “Lubricating ability compared to controls without enzyme inhibitors” value in assay [2] is on record as “preserved lubricating ability”.

`CC(C)C[C@H](NC(=O)[C@H](CC(C)C)NC(=O)[C@H](CC(C)C)NC(=O)OCc1ccccc1)C(=O)CF` [Z-LLL-FMK, Z-Leu-Leu-Leu-fluoromethyl ketone] (Cbz-Leu-Leu-Leu-CH2F): the “Change … of friction Δμ ± S.D.” value is −0.060 ± 0.002 in assay [1] (0 hrs); −0.049 ± 0.002 in assay [1] (24 hrs); −0.019 ± 0.001 in assay [1] (48 hrs); −0.005 ± 0.003 in assay [1] (96 hrs); −0.060 ± 0.002 in assay [2] (0 hrs); −0.035 ± 0.002 in assay [2] (24 hrs). The “Change … of friction Δμ ± S.D.” value in assay [2] (48 hrs) is −0.031 ± 0.003; in assay [2] (96 hrs) it was −0.028 ± 0.002. The “Δμ compared to lubricin-supplemented pooled RA SF aspirates” value in assay [1] (setting [3]) was “significant decrease in Δμ”. Besides, the “average increase in Δμ” value stood at 18.3% in assay [1] (at 24 hours, RA SF); 68.3% in assay [1] (at 48 hours, RA SF); 91.7% in assay [1] (at 96 hours, RA SF); 41.7% in assay [2] (at 24 hours, KJS SF); 48.3% in assay [2] (at 48 hours, KJS SF); 53.3% in assay [2] (at 96 hours, KJS SF). Moreover, the “Lubricating ability compared to controls without enzyme inhibitors” value in assay [2] is reported as “preserved lubricating ability”.
